# Source: ChEMBL document CHEMBL3044624, “Cycloate, an inhibitor of fatty acid elongase, modulates the metabolism of very-long-side-chain alkylresorcinols in rye seedlings” (Pest Manag Sci, 2009)
# Assays:
# Secale cereale [1] = test: Change in alkylresorcinol homologue composition in dry shoots of green Secale cereale (rye) seedlings grown from compound-treated seeds at 22 +/-2 degC assessed as C23:0 content at 46 uM by GC/EI-MS analysis (reference value: 0.54 mg/kg dry weight); assay type: functional
# Secale cereale [2] = test: Change in alkylresorcinol homologue composition in dry shoots of etiolated Secale cereale (rye) seedlings grown from compound-treated seeds at 22 +/-2 degC assessed as C23:1 content at 46 uM by GC/EI-MS analysis (reference value: 0.04 mg/kg dry weight); assay type: functional
# Secale cereale [3] = test: Toxicity against green Secale cereale (rye) seedlings assessed as fresh biomass of seedling grown at 15 +/-2 degC at 46 uM measured at 5 days after compound-treated seed germination (reference value: 10.70 +/-0.28 g); assay type: organism-based; conditions: in vivo, 120 h
# Secale cereale [4] = test: Change in alkylresorcinol content in dry shoots of green Secale cereale (rye) seedlings grown from compound-treated seeds at 15 +/-2 degC at 46 uM by thin layer chromatography (reference value: 4.15 +/-0.02 mg/kg dry weight); assay type: functional
# Secale cereale [5] = test: Change in alkylresorcinol homologue composition in dry shoots of etiolated Secale cereale (rye) seedlings grown from compound-treated seeds at 29 +/-2 degC assessed as C19:0 content at 46 uM by GC/EI-MS analysis (reference value: 1.06 mg/kg dry weight); assay type: functional
# Secale cereale [6] = test: Toxicity against etiolated Secale cereale (rye) seedlings assessed as fresh biomass of seedling grown at 15 +/-2 degC at 46 uM measured at 5 days after compound-treated seed germination (reference value: 7.63 +/-0.12 g); assay type: organism-based; conditions: in vivo, 120 h
# Secale cereale [7] = test: Change in alkylresorcinol homologue composition in dry shoots of green Secale cereale (rye) seedlings grown from compound-treated seeds at 22 +/-2 degC assessed as C25:0 content at 46 uM by GC/EI-MS analysis (reference value: 0.11 mg/kg dry weight); assay type: functional
# Secale cereale [8] = test: Change in alkylresorcinol homologue composition in dry shoots of etiolated Secale cereale (rye) seedlings grown from compound-treated seeds at 15 +/-2 degC assessed as C21:1 content at 46 uM by GC/EI-MS analysis (reference value: 0.34 mg/kg dry weight); assay type: functional
# Secale cereale [9] = test: Change in alkylresorcinol homologue composition in dry shoots of etiolated Secale cereale (rye) seedlings grown from compound-treated seeds at 15 +/-2 degC assessed as C19:1 content at 46 uM by GC/EI-MS analysis (reference value: 0.54 mg/kg dry weight); assay type: functional
# Secale cereale [10] = test: Change in alkylresorcinol homologue composition in dry shoots of etiolated Secale cereale (rye) seedlings grown from compound-treated seeds at 15 +/-2 degC assessed as C15:0 content at 46 uM by GC/EI-MS analysis (reference value: 0.43 mg/kg dry weight); assay type: functional
# Secale cereale [11] = test: Change in alkylresorcinol content in dry shoots of etiolated Secale cereale (rye) seedlings grown from compound-treated seeds at 29 +/-2 degC at 46 uM by thin layer chromatography (reference value: 3.03 +/-0.02 mg/kg dry weight); assay type: functional
# Secale cereale [12] = test: Change in alkylresorcinol content in dry shoots of etiolated Secale cereale (rye) seedlings grown from compound-treated seeds at 22 +/-2 degC at 46 uM by thin layer chromatography (reference value: 6.22 +/-0.09 mg/kg dry weight); assay type: functional
# Secale cereale [13] = test: Change in alkylresorcinol homologue composition in dry shoots of etiolated Secale cereale (rye) seedlings grown from compound-treated seeds at 29 +/-2 degC assessed as C15:0 content at 46 uM by GC/EI-MS analysis (reference value: 0.09 mg/kg dry weight); assay type: functional
# Secale cereale [14] = test: Change in alkylresorcinol homologue composition in dry shoots of green Secale cereale (rye) seedlings grown from compound-treated seeds at 15 +/-2 degC assessed as C17:0 content at 46 uM by GC/EI-MS analysis (reference value: 1.46 mg/kg dry weight); assay type: functional
# Secale cereale [15] = test: Change in alkylresorcinol homologue composition in dry shoots of green Secale cereale (rye) seedlings grown from compound-treated seeds at 22 +/-2 degC assessed as C15:0 content at 46 uM by GC/EI-MS analysis (reference value: 0.24 mg/kg dry weight); assay type: functional
# Secale cereale [16] = test: Change in alkylresorcinol homologue composition in dry shoots of etiolated Secale cereale (rye) seedlings grown from compound-treated seeds at 22 +/-2 degC assessed as C19:1 content at 46 uM by GC/EI-MS analysis (reference value: 0.24 mg/kg dry weight); assay type: functional
# Secale cereale [17] = test: Change in alkylresorcinol homologue composition in dry shoots of etiolated Secale cereale (rye) seedlings grown from compound-treated seeds at 22 +/-2 degC assessed as C17:0 content at 46 uM by GC/EI-MS analysis (reference value: 1.35 mg/kg dry weight); assay type: functional
# Secale cereale [18] = test: Change in alkylresorcinol homologue composition in dry shoots of etiolated Secale cereale (rye) seedlings grown from compound-treated seeds at 22 +/-2 degC assessed as C21:0 content at 46 uM by GC/EI-MS analysis (reference value: 1.49 mg/kg dry weight); assay type: functional
# Secale cereale [19] = test: Change in alkylresorcinol homologue composition in dry shoots of etiolated Secale cereale (rye) seedlings grown from compound-treated seeds at 15 +/-2 degC assessed as C17:1 content at 46 uM by GC/EI-MS analysis (reference value: 0.51 mg/kg dry weight); assay type: functional
# Secale cereale [20] = test: Change in alkylresorcinol homologue composition in dry shoots of etiolated Secale cereale (rye) seedlings grown from compound-treated seeds at 15 +/-2 degC assessed as C25:0 content at 46 uM by GC/EI-MS analysis (reference value: 0.11 mg/kg dry weight); assay type: functional
# Secale cereale [21] = test: Change in alkylresorcinol homologue composition in dry shoots of green Secale cereale (rye) seedlings grown from compound-treated seeds at 29 +/-2 degC assessed as C21:0 content at 46 uM by GC/EI-MS analysis (reference value: 0.20 mg/kg dry weight); assay type: functional
# Secale cereale [22] = test: Change in alkylresorcinol homologue composition in dry shoots of etiolated Secale cereale (rye) seedlings grown from compound-treated seeds at 22 +/-2 degC assessed as C17:1 content at 46 uM by GC/EI-MS analysis (reference value: 0.11 mg/kg dry weight); assay type: functional
# Secale cereale [23] = test: Toxicity against etiolated Secale cereale (rye) seedlings assessed as dry biomass of seedling grown at 22 +/-2 degC at 46 uM measured at 5 days after compound-treated seed germination (reference value: 2.52 +/-0.05 g); assay type: organism-based; conditions: in vivo, 120 h
# Secale cereale [24] = test: Change in alkylresorcinol homologue composition in dry shoots of green Secale cereale (rye) seedlings grown from compound-treated seeds at 22 +/-2 degC assessed as C17:1 content at 46 uM by GC/EI-MS analysis (reference value: 0.21 mg/kg dry weight); assay type: functional
# Secale cereale [25] = test: Change in alkylresorcinol homologue composition in dry shoots of green Secale cereale (rye) seedlings grown from compound-treated seeds at 15 +/-2 degC assessed as C23:0 content at 46 uM by GC/EI-MS analysis (reference value: 0.59 mg/kg dry weight); assay type: functional
# Secale cereale [26] = test: Change in alkylresorcinol homologue composition in dry shoots of green Secale cereale (rye) seedlings grown from compound-treated seeds at 22 +/-2 degC assessed as C19:0 content at 46 uM by GC/EI-MS analysis (reference value: 0.56 mg/kg dry weight); assay type: functional
smiles,measurement,setting,value
CCSC(=O)N(CC)C1CCCCC1 [CYCLOATE],Activity,Secale cereale [1],0.13 mg/kg
same,Activity,Secale cereale [2],0.03 mg/kg
same,Activity,Secale cereale [3],4.73 g
same,Activity,Secale cereale [4],6.67 mg/kg
same,Activity,Secale cereale [5],3.74 mg/kg
same,Activity,Secale cereale [6],4.41 g
same,Activity,Secale cereale [7],0.07 mg/kg
same,Activity,Secale cereale [8],0.43 mg/kg
same,Activity,Secale cereale [9],1.08 mg/kg
same,Activity,Secale cereale [10],1.01 mg/kg
same,Activity,Secale cereale [11],14.34 mg/kg
same,Activity,Secale cereale [12],2.94 mg/kg
same,Activity,Secale cereale [13],0.72 mg/kg
same,Activity,Secale cereale [14],2.75 mg/kg
same,Activity,Secale cereale [15],0.2 mg/kg
same,Activity,Secale cereale [16],0.21 mg/kg
same,Activity,Secale cereale [17],0.83 mg/kg
same,Activity,Secale cereale [18],0.48 mg/kg
same,Activity,Secale cereale [19],1.25 mg/kg
same,Activity,Secale cereale [20],0.1 mg/kg
same,Activity,Secale cereale [21],1.34 mg/kg
same,Activity,Secale cereale [22],0.11 mg/kg
same,Activity,Secale cereale [23],1.5 g
same,Activity,Secale cereale [24],0.13 mg/kg
same,Activity,Secale cereale [25],0.17 mg/kg
same,Activity,Secale cereale [26],0.87 mg/kg
